Assay [1] is described as follows: Curdling / cream / solidification of milk. The source says:
Most of the foods changed color or texture.

The subject of assay [2] is grains, legumes, potatoes, garlic. The experiment in a line: Germination / sprouting of grains, legumes and tubers. The source says:
These bags were sealed with a heat sealer.
The assembly was shaken periodically.

“And” between values parts separate entries of the source, which are not always exact repeats. Equal values may be shown once. Some results are limits rather than exact numbers.

On to `C=CCN=C=S` [AI, allyl isothiocyanate], for which the “Spoilage Time - Sample” value in assay [1] (Example 16, Cream, Raw cow milk, 0.07 g, control 3 days) is 24 days; in assay [1] (Example 17, Curdling, Milk (pasteurized, whole milk), 0.10 g, control 2 days) it was 16 days; in assay [1] (Example 18, Curdling, Milk & Yogurt (whole milk & yogurt) mix, 0.10 g, control 2 days) it was 16 days; in assay [1] (Example 18, Curdling, Milk & Yogurt (whole milk & yogurt) mix, 0.10 g, control 2 days, listed as allyl isothiocyanate) it was more than 16 days; in assay [1] (Example 19, Curdling, Milk (pasteurized, whole milk), 0.05 g, control 2 days), 28 days; in assay [1] (Example 19, Curdling, Milk (pasteurized, whole milk), 0.05 g, control 2 days, listed as allyl isothiocyanate), > 28 days and > 21 days. In addition, the “Spoilage Time - Sample” value in assay [2] (Example 66, Germination, Mixed Legumes (T), 0.10 g, control 3 days) is given as 9 days; in assay [2] (Example 67, Germination, Mixed Legumes, Sachet, control 4 days) it was 21 days; in assay [2] (Example 67, Germination, Mixed Legumes, Sachet, control 4 days, listed as allyl isothiocyanate), more than 21 days; in assay [2] (Example 68, Germination, Mixed Legumes, Sachet, control 3 days), 9 days; in assay [2] (Example 69, Germination, Soft White Wheat, Sachet, control 4 days) it was 21 days; in assay [2] (Example 70, Germination, Soft White Wheat, 5 ml of 10% allyl isothiocyanate solution in water, control 4 days), 21 days. The “Spoilage Time - Sample” value in assay [2] (Example 71, Germination, Unshelled Rice, Sachet, control 3 days) is given as 15 days; in assay [2] (Example 79, Sprouting, Red Potatoes, 2 hrs P-E, control 9 days), 16 days; in assay [2] (Example 80, Sprouting, Mix of red, purple and yellow potatoes, 4 hrs P-E, control 22 days), 46 days; in assay [2] (Example 81, Sprouting, Fingerling Potatoes, 2 hrs P-E, control 37 days), 59 days; in assay [2] (Example 82, Sprouting, Sprouted Garlic, 0.5 hr P-E, control 4 days), 4+ days; in assay [2] (Example 82, Sprouting, Sprouted Garlic, 0.5 hr P-E, control 4 days, listed as allyl isothiocyanate) it was “no further growth of sprouts”. The compound also gave a Germination and/or fungus in assay [2] (flooded shelled peanuts, a drop in flooded water, control 5 days) of more than 8 days. Further, the Sprouting result in assay [2] (various types of potatoes, vapor or sachet, Examples 79-81) is “either prevented or significantly delayed”.

(Values after patent US12193465B2, “Materials and methods for extending shelf-life of foods” (JP Laboratories, Inc., priority 2021, dated 2025).)
